Results published in the Kinase Knowledgebase extract (Sharma et al. 2016).

Molecular target: CDK2 (human) (UniProt P24941)
Experiment: Cell-Based Assay

| Compound | IC50 (mda-mb-435) | IC50 (sw480) | IC50 (hct 116) |
| --- | --- | --- | --- |
| O=[N+]([O-])c1ccc2c(c1)C(c1ccccc1Cl)=Nc1c(n[nH]c1-c1nccs1)N2 | 10000 to 30000 nM | – | – |
| N#Cc1[nH]nc2c1N=C(c1ccccc1Cl)c1cc([N+](=O)[O-])ccc1N2 | 10000 to 30000 nM | – | – |
| O=[N+]([O-])c1ccc2c(c1)C(c1ccccc1Cl)=Nc1c(n[nH]c1C1CC1)N2 | 10 to 1000 nM | 1100 to 9990 nM | 1100 to 9990 nM |
| O=[N+]([O-])c1ccc2c(c1)C(c1ccccc1Cl)=Nc1c(n[nH]c1-c1cccnc1)N2 | – | 10000 to 30000 nM | 10000 to 30000 nM |
| O=[N+]([O-])c1ccc2c(c1)C(c1ccccc1Cl)=Nc1c(n[nH]c1-c1ccc(OC(F)(F)F)cc1)N2 | – | – | 10000 to 30000 nM |
| O=C(NCCO)c1ccc2c(c1)C(c1ccccc1F)=Nc1c[nH]nc1N2 | – | – | 10000 to 30000 nM |
| O=[N+]([O-])c1ccc2c(c1)C(c1ccccc1Cl)=Nc1c(n[nH]c1-c1cccc3c1OCO3)N2 | – | – | 10000 to 30000 nM |
| O=C(c1ccc2c(c1)C(c1ccccc1F)=Nc1c[nH]nc1N2)N1CCOCC1 | – | 10 to 1000 nM | 10000 to 30000 nM |
| CCCc1[nH]nc2c1N=C(c1ccccc1Cl)c1cc([N+](=O)[O-])ccc1N2 | 10000 to 30000 nM | 10000 to 30000 nM | 10000 to 30000 nM |
| O=[N+]([O-])c1ccc2c(c1)C(c1ccccc1Cl)=Nc1c(n[nH]c1-c1cccc3ccccc13)N2 | – | 10000 to 30000 nM | 10000 to 30000 nM |
| O=[N+]([O-])c1ccc2c(c1)C(c1ccccc1Cl)=Nc1c(n[nH]c1CO)N2 | 10 to 1000 nM | 10 to 1000 nM | – |
| NC(=O)c1[nH]nc2c1N=C(c1ccccc1Cl)c1cc([N+](=O)[O-])ccc1N2 | 10000 to 30000 nM | – | – |
| COc1cc(O)ccc1-c1[nH]nc2c1N=C(c1ccccc1Cl)c1cc([N+](=O)[O-])ccc1N2 | – | – | 10000 to 30000 nM |
| CN(C)Cc1[nH]nc2c1N=C(c1ccccc1Cl)c1cc([N+](=O)[O-])ccc1N2 | 10000 to 30000 nM | – | – |
| O=[N+]([O-])c1ccc2c(c1)C(c1ccccc1Cl)=Nc1c(n[nH]c1-c1ccncc1)N2 | – | 10000 to 30000 nM | 10000 to 30000 nM |
| Clc1ccccc1C1=Nc2c[nH]nc2Nc2ccccc21 | – | 10000 to 30000 nM | 10000 to 30000 nM |

| Compound | IC50 (mda-mb-435) | IC50 (sw480) | IC50 (hct 116) |
| --- | --- | --- | --- |
| O=Cc1[nH]nc2c1N=C(c1ccccc1Cl)c1cc([N+](=O)[O-])ccc1N2 | 10 to 1000 nM | – | – |
| O=[N+]([O-])c1ccc2c(c1)C(c1ccccc1Cl)=Nc1c(n[nH]c1-c1cncc3ccccc13)N2 | – | – | 10000 to 30000 nM |
| NNC(=O)c1[nH]nc2c1N=C(c1ccccc1Cl)c1cc([N+](=O)[O-])ccc1N2 | – | 10000 to 30000 nM | 1100 to 9990 nM |
| O=[N+]([O-])c1ccc2c(c1)C(c1ccccc1Cl)=Nc1c(n[nH]c1-c1ccco1)N2 | – | 10000 to 30000 nM | 10000 to 30000 nM |
| O=[N+]([O-])c1ccc2c(c1)C(c1ccccc1Cl)=Nc1c(n[nH]c1-c1c[nH]cn1)N2 | 1100 to 9990 nM | – | – |
| CSc1ccc(-c2[nH]nc3c2N=C(c2ccccc2Cl)c2cc([N+](=O)[O-])ccc2N3)cc1 | – | – | 10000 to 30000 nM |
| Cc1cn[nH]c1-c1[nH]nc2c1N=C(c1ccccc1Cl)c1cc([N+](=O)[O-])ccc1N2 | 1100 to 9990 nM | 10 to 1000 nM | 1100 to 9990 nM |
| O=[N+]([O-])c1ccc2c(c1)C(c1ccccc1Cl)=Nc1c(n[nH]c1-c1cc[nH]n1)N2 | 1100 to 9990 nM | – | – |
| Cc1[nH]nc2c1N=C(c1ccccc1Cl)c1cc(NS(=O)(=O)N3CCOCC3)ccc1N2 | 1100 to 9990 nM | 1100 to 9990 nM | – |
| COCc1[nH]nc2c1N=C(c1ccccc1Cl)c1cc([N+](=O)[O-])ccc1N2 | 1100 to 9990 nM | – | – |
| O=[N+]([O-])c1ccc2c(c1)C(c1ccccc1)=Nc1c[nH]nc1N2 | – | – | 10000 to 30000 nM |
| O=[N+]([O-])c1ccc2c(c1)C(c1ccccc1)=Nc1c(n[nH]c1C1CC1)N2 | – | – | 10000 to 30000 nM |
| Cc1[nH]nc2c1N=C(c1ccccc1Cl)c1cc(N)ccc1N2 | 10 to 1000 nM | 10 to 1000 nM | – |
| O=[N+]([O-])c1ccc2c(c1)C(c1ccccc1Cl)=Nc1c(n[nH]c1-c1ccccc1)N2 | – | 10000 to 30000 nM | 10000 to 30000 nM |
| O=[N+]([O-])c1ccc2c(c1)C(c1ccccc1Cl)=Nc1c[nH]nc1N2 | 10000 to 30000 nM | 1100 to 9990 nM | 10000 to 30000 nM |

Further lines, results first:

| IC50 (mda-mb-435) | IC50 (sw480) | IC50 (hct 116) | Compound |
| --- | --- | --- | --- |
| 1100 to 9990 nM | 1100 to 9990 nM | – | Cc1[nH]nc2c1N=C(c1ccccc1)c1cc(Cl)ccc1N2 |
| – | 10 to 1000 nM | – | Cc1[nH]nc2c1N=C(c1ccccc1F)c1cc(F)ccc1N2 |
| 1100 to 9990 nM | 1100 to 9990 nM | – | COc1ccc2c(c1)C(c1ccccc1Cl)=Nc1c(n[nH]c1C)N2 |
| – | 10000 to 30000 nM | – | Cc1[nH]nc2c1N=C(c1ccccc1)c1cc(Br)ccc1N2 |
| 10 to 1000 nM | 10 to 1000 nM | 10 to 1000 nM | Cc1[nH]nc2c1N=C(c1ccccc1Cl)c1cc([N+](=O)[O-])ccc1N2 |
| 10 to 1000 nM | 10 to 1000 nM | 1100 to 9990 nM | CC(C)c1[nH]nc2c1N=C(c1ccccc1Cl)c1cc([N+](=O)[O-])ccc1N2 |
| 10 to 1000 nM | 1100 to 9990 nM | – | Cc1[nH]nc2c1N=C(c1ccccc1)c1cc(F)ccc1N2 |
| – | 10 to 1000 nM | – | Cc1[nH]nc2c1N=C(c1ccccc1F)c1cc(C(N)=O)ccc1N2 |
| 1100 to 9990 nM | 10 to 1000 nM | – | Cc1[nH]nc2c1N=C(c1ccccc1F)c1cc(C(=O)NCCO)ccc1N2 |
| 1100 to 9990 nM | 10 to 1000 nM | – | Cc1[nH]nc2c1N=C(c1ccccc1F)c1cc(C(=O)N3CCOCC3)ccc1N2 |
| 10 to 1000 nM | 10 to 1000 nM | 1100 to 9990 nM | Cc1[nH]nc2c1N=C(c1ccccc1F)c1cc(C#N)ccc1N2 |
| 10 to 1000 nM | 10 to 1000 nM | 10 to 1000 nM | CCc1[nH]nc2c1N=C(c1ccccc1Cl)c1cc([N+](=O)[O-])ccc1N2 |
| 1100 to 9990 nM | 1100 to 9990 nM | 1100 to 9990 nM | CCOC(=O)c1ccc2c(c1)C(c1ccccc1F)=Nc1c(n[nH]c1C)N2 |
| 1100 to 9990 nM | 1100 to 9990 nM | – | Cc1[nH]nc2c1N=C(c1ccccc1Cl)c1cc(Cl)ccc1N2 |
| – | 10 to 1000 nM | – | Cc1[nH]nc2c1N=C(c1ccccc1C(F)(F)F)c1cc([N+](=O)[O-])ccc1N2 |
| 10 to 1000 nM | 10 to 1000 nM | – | CC(=O)Nc1ccc2c(c1)C(c1ccccc1Cl)=Nc1c(n[nH]c1C)N2 |
| 10 to 1000 nM | 10 to 1000 nM | – | Cc1[nH]nc2c1N=C(c1ccccc1F)c1cc([N+](=O)[O-])ccc1N2 |
| 1100 to 9990 nM | 1100 to 9990 nM | – | Cc1[nH]nc2c1N=C(c1ccccc1Cl)c1ccccc1N2 |
| – | 1100 to 9990 nM | – | Cc1[nH]nc2c1N=C(c1ccccc1F)c1cc(Cl)ccc1N2 |
| 10 to 1000 nM | 10 to 1000 nM | – | Cc1[nH]nc2c1N=C(c1ccccc1Cl)c1cc(NS(C)(=O)=O)ccc1N2 |
| 10 to 1000 nM | – | – | C=Cc1[nH]nc2c1N=C(c1ccccc1Cl)c1cc([N+](=O)[O-])ccc1N2 |
| 1100 to 9990 nM | 1100 to 9990 nM | – | Cc1[nH]nc2c1N=C(c1ccccc1Cl)c1cc(NS(=O)(=O)NCCl)ccc1N2 |
| 10 to 1000 nM | 10 to 1000 nM | – | C=CC(=O)Nc1ccc2c(c1)C(c1ccccc1Cl)=Nc1c(n[nH]c1C)N2 |
| 10 to 1000 nM | 1100 to 9990 nM | – | Cc1[nH]nc2c1N=C(c1ccccc1Cl)c1cc(NS(=O)(=O)N(C)C)ccc1N2 |
| 10 to 1000 nM | 10 to 1000 nM | – | Cc1[nH]nc2c1N=C(c1ccccc1)c1cc([N+](=O)[O-])ccc1N2 |
| 10 to 1000 nM | 10 to 1000 nM | – | N#Cc1ccc2c(c1)C(c1ccccc1F)=Nc1c(n[nH]c1CO)N2 |
| 1100 to 9990 nM | 10 to 1000 nM | – | Cc1[nH]nc2c1N=C(c1ccccc1F)c1ccccc1N2 |
| – | 1100 to 9990 nM | – | Cc1[nH]nc2c1N=C(c1ccccc1F)c1cc(I)ccc1N2 |
| 1100 to 9990 nM | 10 to 1000 nM | – | Cc1[nH]nc2c1N=C(c1ccccc1F)c1cc(C(=O)NCCN3CCOCC3)ccc1N2 |
| – | 1100 to 9990 nM | 1100 to 9990 nM | NC(=O)c1ccc2c(c1)C(c1ccccc1F)=Nc1c[nH]nc1N2 |
